Earlier results, collected in patent US8450339B2, “Compositions for treatment of common cold” (Takeda Pharma A/S, priority 2001, dated 2013).
Counter-ions that a name gives are not always drawn.

Tests used:
[1] = aqueous solution
[2] = following administration

| Structure (SMILES) | Stability optimum, pH [1] | Mean duration of effect [2] [h] |
| --- | --- | --- |
| Cc1cc(C(C)(C)C)cc(C)c1CC1=NCCN1 [xylometazoline hydrochloride] | 2 |  |
| CC(C)[N+]1(C)[C@@H]2CC[C@H]1CC(OC(=O)C(CO)c1ccccc1)C2.[Br-] (some centres unmarked) [ipratropium bromide] |  | 6 |
